Experimental data as given in US4438104A, “Endorphins having placental or pancreatic origin” (Endorphin, Inc., priority 1982, dated 1984).

Assays:
mice = settings: stated as known characteristic; cited from earlier work
Balb/C mice = assay: Delay in tail-flick in mice from a standardized heat injury; format: in vivo
Method: Using p-endorphin as prepared in Example 2 tests of the delay in tail-flick in mice from a standardized heat injury were conducted under our direction and control as follows: Inbred mice (in this case Balb/C males weighing 20 to 25 gms) were held in a special body holder in cotton and a standardized "heat-run" or lamp was held a standardized distance away from the base of the tail which was painted black with india ink to increase the amount of energy it absorbs. On the average, 3.5 seconds of this heat is enough to cause these mice to flick their tail in a vigorous fashion. This end-point is unmistakable. The standard deviation of 50 determinations of this kind is approximately 0.7 seconds. Therefore, the normal range of large numbers of these mice with multiple determinations would be about 2.2 to 4.8 seconds.
The data set forth below in Table 1 illustrate the amount of time for the onset of tail flicking by mice tested at various times after the injection of […] of p-endorphin (P-EP).

Q: Which Staub tail (mice) does the source give for “beta-endorphin (YGGFMTSEKSQTPLVTLFKNAIIKNAYKKGE; Beta-endorphin; UniProt P01189 237-267, looked up) [endogenous opioid peptide hormone, 61 to 91 portion of beta lipotropin; standard]” here?
A: characteristic

Q: What about the delay in tail-flick (Balb/C mice; mice) of the same substance?
A: more than 10 seconds

Q: What about the “amount required to obtain the same in vivo effect” value (Balb/C mice; same tail-flick effect as 30 μg P-EP preparation) of the same substance?
A: about 0.8 nanamoles per mouse
